Data taken from patent publication US11332459B2 (TEIJIN PHARMA LIMITED, priority 2017, dated 2022).
Counter-ions that a name gives are not always drawn.

Target: T1, human TRPC6 (Homo sapiens, UniProt Q9Y210)
T1 construct: expressed in transfected cells
T1 sequence (Q9Y210 1-931): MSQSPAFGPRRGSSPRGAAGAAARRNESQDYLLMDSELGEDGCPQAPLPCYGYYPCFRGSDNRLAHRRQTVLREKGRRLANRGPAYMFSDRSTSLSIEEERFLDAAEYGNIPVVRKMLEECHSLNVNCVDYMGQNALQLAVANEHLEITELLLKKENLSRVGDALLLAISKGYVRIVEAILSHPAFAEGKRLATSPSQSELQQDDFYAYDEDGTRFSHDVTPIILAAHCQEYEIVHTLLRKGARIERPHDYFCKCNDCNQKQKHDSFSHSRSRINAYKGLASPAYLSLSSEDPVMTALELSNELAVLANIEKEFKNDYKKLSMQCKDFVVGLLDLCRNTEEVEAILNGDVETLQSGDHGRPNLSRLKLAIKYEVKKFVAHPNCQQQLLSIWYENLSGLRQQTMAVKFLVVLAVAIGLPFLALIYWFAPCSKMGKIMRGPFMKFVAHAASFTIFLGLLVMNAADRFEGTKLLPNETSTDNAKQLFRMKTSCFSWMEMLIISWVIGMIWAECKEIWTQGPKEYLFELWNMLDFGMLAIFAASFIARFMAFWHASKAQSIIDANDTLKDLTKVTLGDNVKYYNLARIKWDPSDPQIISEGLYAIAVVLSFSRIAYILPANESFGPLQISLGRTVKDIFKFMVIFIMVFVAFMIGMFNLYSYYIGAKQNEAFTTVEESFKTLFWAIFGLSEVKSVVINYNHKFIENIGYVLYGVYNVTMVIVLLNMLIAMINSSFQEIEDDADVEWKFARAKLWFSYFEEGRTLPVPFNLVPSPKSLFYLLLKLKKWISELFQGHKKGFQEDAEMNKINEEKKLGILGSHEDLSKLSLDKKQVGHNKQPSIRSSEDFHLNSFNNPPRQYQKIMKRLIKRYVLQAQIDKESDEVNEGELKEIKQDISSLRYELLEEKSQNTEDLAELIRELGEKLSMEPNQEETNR
Assay: TRPC6 calcium flux assay (FLIPR, OAG-stimulated calcium influx)
Type: cell-based
Conditions: HEK293 cells stably transfected with human TRPC6, read-out: hTRPC6 Potency
In short: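 IC50 derived by plotting background-corrected peak fluorescence (180 s window, normalized to OAG-triggered signal vs buffer) against dose. Stable human TRPC6 HEK293 line was dye-loaded, exposed to compound 25 min, then challenged with 50 uM final OAG in 2 mM Ca2+ HEPES buffer pH 7.2, 0.5% DMSO.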

Row | IC50 [nM] | Compound
1 | 1120 | N[C@@H]1CCCN(c2nc3ccccc3n2Cc2ccc(Cl)cc2Cl)C1 [Example 395, (R)-1-(1-(2,4-dichlorobenzyl)-1H-benzo[d]imidazol-2-yl)piperidin-3-amine]
2 | 6.13 | N#Cc1cc(F)cc2c1nc(N1CC[C@H](F)[C@H](N)C1)n2Cc1ncc(F)cn1 [Example 36, 2-((3R,4S)-3-amino-4-fluoropiperidin-1-yl)-6-fluoro-1-((5-fluoropyrimidin-2-yl)methyl)-1H-benzo[d]imidazole-4-carbonitrile]
3 | 123 | CO[C@H]1CCN(c2nc3ccc(F)cc3n2Cc2ncc(Cl)cn2)C[C@H]1N [Example 467, (3R,4S)-1-(1-((5-chloropyrimidin-2-yl)methyl)-6-fluoro-1H-benzo[d]imidazol-2-yl)-4-methoxypiperidin-3-amine]
4 | 2850 | N[C@@H]1CN(c2nc3cc(F)c(F)cc3n2CC(=O)N(C2CC2)C2CCS(=O)(=O)C2)CC[C@H]1F (stereo partly drawn) [Example 526, 2-(2-((3R,4R)-3-amino-4-fluoropiperidin-1-yl)-5,6-difluoro-1H-benzo[d]imidazol-1-yl)-N-cyclopropyl-N-(1,1-dioxidotetrahydrothiophen-3-yl)acetamide]
5 | 122 | N#CC1CN(C(=O)Cn2c(N3CC[C@@H](F)[C@H](N)C3)nc3cc(F)c(F)cc32)CCO1 (mixture of isomers) [Example 627, 4-(2-(2-((3R,4R)-3-amino-4-fluoropiperidin-1-yl)-5,6-difluoro-1H-benzo[d]imidazol-1-yl)acetyl)morpholine-2-carbonitrile]
6 | 1.17 | N#Cc1ccc(Cn2c(N3CC[C@@H](F)[C@H](N)C3)nc3cc(Cl)ccc32)nc1 [Example 7, 6-((2-((3R,4R)-3-amino-4-fluoropiperidin-1-yl)-5-chloro-1H-benzo[d]imidazol-1-yl)methyl)nicotinonitrile]
7 | 763 | COc1cc(F)cc2nc(N3CC[C@@H](F)[C@H](N)C3)n(Cc3ccc(C#N)cn3)c12 [Example 476]
8 | 16.4 | N#Cc1ccc(Cn2c(N3CC[C@@H](F)[C@H](N)C3)nc3cc(C#N)ccc32)cc1 [Example 159, 2-((3R,4R)-3-amino-4-fluoro-1-piperidinyl)-1-(4-cyanobenzyl)-1H-benzimidazole-5-carbonitrile]
9 | 557 | N#Cc1ccc(Cn2c(N3CC[C@@H](CN)C3)nc3ccccc32)nc1 [Example 81, (S)-6-((2-(3-(aminomethyl)pyrrolidin-1-yl)-1H-benzo[d]imidazol-1-yl)methyl)nicotinonitrile hydrochloride]
10 | 0.45 | N#Cc1ccc(Cn2c(N3CC[C@H](F)[C@H](N)C3)nc3ccc(C(F)(F)F)cc32)nc1 [Example 106, 6-((2-((3R,4S)-3-amino-4-fluoro-1-piperidinyl)-6-(trifluoromethyl)-1H-benzimidazol-1-yl)methyl)-3-pyridinecarbonitrile]
11 | 686 | N[C@@H]1CN(c2nc3ccccc3n2CC(=O)N2CCC2)CC[C@H]1F [Example 520, 2-(2-((3R,4R)-3-amino-4-fluoropiperidin-1-yl)-1H-benzo[d]imidazol-1-yl)-1-(azetidin-1-yl)ethan-1-one]
12 | 400 | CCC1CN(C(=O)Cn2c(N3CC[C@@H](F)[C@H](N)C3)nc3cc(F)c(F)cc32)CCO1 (stereo partly drawn) [Example 518, 2-(2-((3R,4R)-3-amino-4-fluoropiperidin-1-yl)-5,6-difluoro-1H-benzo[d]imidazol-1-yl)-1-(2-ethylmorpholino)ethan-1-one]
13 | 1.62 | N#Cc1ccc(Cn2c(N3CC[C@@H](F)[C@H](N)C3)nc3cc(F)c(C(F)(F)F)cc32)nc1 [Example 22, 6-((2-((3R,4R)-3-amino-4-fluoropiperidin-1-yl)-5-fluoro-6-(trifluoromethyl)-1H-benzo[d]imidazol-1-yl)methyl)nicotinonitrile]
14 | 5.52 | N#Cc1ccc(Cn2c(N3CC[C@@H](F)[C@H](N)C3)nc3cc(C#N)ccc32)nc1 [Example 54, 2-((3R,4R)-3-amino-4-fluoropiperidin-1-yl)-1-((5-cyanopyridin-2-yl)methyl)-1H-benzo[d]imidazole-5-carbonitrile]
15 | > 1750 | N[C@@H]1CN(c2nc3cc(F)c(F)cc3n2CC(=O)N2CCC(C(=O)N3CCCC3)CC2)CC[C@H]1F [Example 529, 2-(2-((3R,4R)-3-amino-4-fluoropiperidin-1-yl)-5,6-difluoro-1H-benzo[d]imidazol-1-yl)-1-(4-(pyrrolidine-1-carbonyl)piperidin-1-yl)ethan-1-one]
16 | 132 | N[C@@H]1CN(c2nc3cc(F)c(F)cc3n2CC(=O)N2CCCC(O)C2)CC[C@H]1F (mixture of isomers) [Example 628, 2-(2-((3R,4R)-3-amino-4-fluoropiperidin-1-yl)-5,6-difluoro-1H-benzo[d]imidazol-1-yl)-1-(3-hydroxypiperidin-1-yl)ethanone]
17 | 260 | CN(CC(F)F)C(=O)Cn1c(N2CC[C@@H](F)[C@H](N)C2)nc2cc(F)c(F)cc21 (single isomer, unassigned) [Example 634]
18 | 0.288 | N[C@@H]1CN(c2nc3ccc(C(F)(F)F)cc3n2Cc2ncc(F)cn2)CC[C@@H]1F [Example 305, (3R,4S)-4-fluoro-1-(1-((5-fluoropyrimidin-2-yl)methyl)-6-(trifluoromethyl)-1H-benzo[d]imidazol-2-yl)piperidin-3-amine]
19 | 78.4 | N[C@@H]1CN(c2nc3ccc(F)cc3n2Cc2nc(C(F)(F)F)no2)CC[C@H]1F [Example 569, (3R,4R)-4-fluoro-1-(6-fluoro-1-((3-(trifluoromethyl)-1,2,4-oxadiazol-5-yl)methyl)-1H-benzo[d]imidazol-2-yl)piperidin-3-amine]
20 | 9.02 | N#Cc1cc(F)cc2nc(N3CCC(F)(F)[C@H](N)C3)n(Cc3ncc(Cl)cn3)c12 [Example 150, (R)-2-(3-amino-4,4-difluoropiperidin-1-yl)-1-((5-chloropyrimidin-2-yl)methyl)-5-fluoro-1H-benzo[d]imidazole-7-carbonitrile]
21 | 17.2 | N#Cc1cnc(Cn2c(N3CC[C@@H](F)[C@H](N)C3)nc3c(F)cc(F)cc32)cn1 [Example 251, 5-((2-((3R,4R)-3-amino-4-fluoro-1-piperidinyl)-4,6-difluoro-1H-benzimidazol-1-yl)methyl)-2-pyrazinecarbonitrile]
22 | 3.5 | N#Cc1ccc(Cn2c(N3CCC(F)(F)[C@H](N)C3)nc3ccccc32)nc1 [Example 212, (R)-6-((2-(3-amino-4,4-difluoropiperidin-1-yl)-1H-benzo[d]imidazol-1-yl)methyl)nicotinonitrile hydrochloride]
23 | 13.8 | COc1ccc2nc(N3CCC[C@H](N)C3)n(Cc3ccc(C#N)cn3)c2c1 [Example 142, (S)-6-((2-(3-aminopiperidin-1-yl)-6-methoxy-1H-benzo[d]imidazol-1-yl)methyl)nicotinonitrile 2,2,2-trifluoroacetate]
24 | 6.86 | COc1ccc2c(c1)nc(N1CCC[C@H](N)C1)n2Cc1ccc(C#N)cn1 [Example 143, (S)-6-((2-(3-aminopiperidin-1-yl)-5-methoxy-1H-benzo[d]imidazol-1-yl)methyl)nicotinonitrile 2,2,2-trifluoroacetate]
25 | 88.1 | CC1CCN1C(=O)Cn1c(N2CC[C@@H](F)[C@H](N)C2)nc2ccc(F)cc21 (stereo partly drawn) [Example 677, 2-(2-((3R,4R)-3-amino-4-fluoropiperidin-1-yl)-6-fluoro-1H-benzo[d]imidazol-1-yl)-1-(2-methylazetidin-1-yl)ethan-1-one]
26 | 42.9 | N[C@@H]1CN(c2nc3cc(F)c(F)cc3n2Cc2ccc(Cl)c(F)c2)CC[C@H]1F [Example 360, (3R,4R)-1-(1-(4-chloro-3-fluorobenzyl)-5,6-difluoro-1H-benzimidazol-2-yl)-4-fluoro-3-piperidinamine]
27 | 113 | COc1ccc(Cn2c(N3CC[C@@H](F)[C@H](N)C3)nc3ccccc32)nc1 [Example 425, (3R,4R)-4-fluoro-1-(1-((5-methoxypyridin-2-yl)methyl)-1H-benzo[d]imidazol-2-yl)piperidin-3-amine]
28 | 1970 | N[C@@H]1CN(c2nc3cc(F)ccc3n2Cc2ncc(Cl)cn2)CC[C@H]1F [Example 290, (3R,4R)-1-(1-((5-chloropyrimidin-2-yl)methyl)-5-fluoro-1H-benzo[d]imidazol-2-yl)-4-fluoropiperidin-3-amine]

Row | Compound | IC50 [nM]
29 | (3R,4R)-4-fluoro-1-(6- fluoro-1-((4- methoxypyridin-2- yl)methyl)-1H- benzo[d]imidazol-2- yl)piperidin-3-amine [Example 517] | 319
